# Measured values as given in patent publication US8344025B2, “Oxalic acid derivatives and use thereof as physiological cooling active ingredients” (Symrise AG, priority 2007, dated 2013).
# Test system: panel of experts
# Test: Organoleptic test of cooling action in confectioner's fondant, rated by a panel of experts
# Assay type: in vivo
# Conditions: scale from 1 (no cooling action) to 9 (extremely strong cooling action), 0.05 wt. % relative to the complete preparation
# Procedure: The compounds according to Examples 1 to 12 were tested for their organoleptic properties, in particular their cooling action. To this end, they were dissolved, in each case in a specific final concentration, in a mass prepared from sucrose (saccharose) and water (confectioner's fondant, supplier Nordzucker AG, Nordstemmen) and evaluated by a panel of experts. Sensory impressions were rated and the cooling action was assessed on a scale from 1 (no cooling action) to 9 (extremely strong cooling action). The results were convincing in every case.
structure (smiles),measurement,value
"CNC(=O)C(=O)O[C@@H]1C[C@H](C)CC[C@H]1C(C)C [Example 2, L-menthyl N-methyl oxamate]",cooling action,6
